Measured values as given in US20190290671A1, “HYPOLIPIDEMIC EFFECTS OF COMPOSITIONS COMPRISING BETA-GLUCOGALLIN” (priority 2018, published 2019).

Experiment: body weight of high fat diet fed rats
Format: in vivo, Albino Rat (Wistar)
Conditions: HFD + 3 mg/kgbw
Description: Performance of the Test • Feed: The animals were fed with Normal diet (9 kcal/day) and High fat diet (50 kcal/day) throughout the acclimatization and experimental period. The normal diet and High Fat diet were prepared as follows.
Body weight of the animals was recorded in 0th, 15th, 25th, 40th, 60th and 84th day of experimental period. At 0th day, 1 ml Tail blood was collected from each animal of all the groups and serum was separated. At the end of the experimental period (84th day), the animals were sacrificed by cervical dislocation. Blood was collected and serum was separated by centrifugation and used for the analysis of biochemical parameters.
The test item was administered through oral route by gavage.
Experimental Methods • Measurement of Body weight • Estimation of Cholesterol (CHOD/POD Method) • Estimation of Triglycerides (GPO/POD Method) • Estimation of HDL Cholesterol (HDL Cholesterol Direct Reagent Kit, Beacon) • Determination of LDL Cholesterol (LDL Cholesterol Direct Reagent Kit, Beacon)

## CC(C)c1c(C(=O)Nc2ccccc2)c(-c2ccccc2)c(-c2ccc(F)cc2)n1CC[C@@H](O)C[C@@H](O)CC(=O)O [STATIN, Atrovastin]
0th Day
  Mean Body Weight: 108.33 ± 6.83 g
15th Day
  Mean Body Weight: 127.50 ± 6.90 g
25th Day
  Mean Body Weight: 139.16 ± 5.84 g
40th Day
  Mean Body Weight: 155.83 ± 7.35 g
60th Day
  Mean Body Weight: 165.83 ± 9.70 g
84th Day
  Mean Body Weight: 172.50 ± 9.35 g
